Results published in ChEMBL document CHEMBL6074631, “Design, synthesis, and evaluation of pyranochromene derivatives as membrane targeting antibacterials against Gram-positive bacteria” (Bioorg Med Chem Lett, 2024).
Converted amounts (≈) assume the structure as drawn. The source made the active and inactive calls. No cut-off for these calls is given here.

Tests used:
Staphylococcus aureus [1] = assay: Antibacterial activity against […] Staphylococcus aureus ATCC43300 assessed as reduction in bacterial growth by broth microdilution assay; format: functional
[2] = system: Staphylococcus epidermidis; assay: Antibacterial activity against vancomycin-susceptible Staphylococcus epidermidis ATCC12228 assessed as reduction in bacterial growth by broth microdilution assay; format: functional
Staphylococcus aureus [3] = assay: Antibacterial activity against Staphylococcus aureus ATCC25923 assessed as reduction in bacterial growth by broth microdilution assay; format: functional
Bacillus subtilis = assay: Antibacterial activity against […] Bacillus subtilis ATCC9372 assessed as reduction in bacterial growth by broth microdilution assay; format: functional
Enterococcus faecalis = assay: Antibacterial activity against penicillin-susceptible Enterococcus faecalis ATCC29212 assessed as reduction in bacterial growth by broth microdilution assay; format: functional
Pseudomonas aeruginosa = assay: Antibacterial activity against penicillin-susceptible Pseudomonas aeruginosa ATCC27853 assessed as reduction in bacterial growth by broth microdilution assay; format: functional
Staphylococcus aureus [4] = assay: Antibacterial activity against Staphylococcus aureus ATCC31007 assessed as reduction in bacterial growth by broth microdilution assay; format: functional
Acinetobacter baumannii = assay: Antibacterial activity against Acinetobacter baumannii ATCC19606 assessed as reduction in bacterial growth by broth microdilution assay; format: functional
Escherichia coli = assay: Antibacterial activity against Escherichia coli ATCC25922 assessed as reduction in bacterial growth by broth microdilution assay; format: functional
Klebsiella pneumoniae = assay: Antibacterial activity against erythromycin-susceptible Klebsiella pneumoniae ATCC10031 assessed as reduction in bacterial growth by broth microdilution assay; format: functional
Cell membrane [5] = assay: Disruption of cell membrane integrity in Staphylococcus aureus ATCC43300 assessed as blue fluorescence by DAPI staining based fluorescence assay; format: subcellular
Cell membrane [6] = assay: Disruption of cell membrane integrity in Staphylococcus aureus ATCC43300 assessed as red fluorescence by DAPI staining based fluorescence assay; format: subcellular

| Structure (SMILES) | MIC (Staphylococcus aureus [1]) | MIC [2] | MIC (Staphylococcus aureus [3]) | MIC (Bacillus subtilis) | MIC (Enterococcus faecalis) | MIC (Pseudomonas aeruginosa) | MIC (Staphylococcus aureus [4]) | MIC (Acinetobacter baumannii) | MIC (Escherichia coli) | MIC (Klebsiella pneumoniae) | Activity (Cell membrane [5]) | Activity (Cell membrane [6]) |
| --- | --- | --- | --- | --- | --- | --- | --- | --- | --- | --- | --- | --- |
| CCNCCCOc1ccc(/C=C/C(=O)c2c(OC)c3c(c4c2OC(C)(CCC=C(C)C)C=C4)OC(C)(CCC=C(C)C)C=C3)cc1 (stereo not drawn) | > 128 µg/mL | > 128 µg/mL | > 128 µg/mL | 128 µg/mL (≈ 200 µM) | > 128 µg/mL | 128 µg/mL (≈ 200 µM) | > 128 µg/mL | 128 µg/mL (≈ 200 µM) | > 128 µg/mL | > 128 µg/mL |  |  |
| CC[N+](CC)(CC)CCCOc1ccc(/C=C/C(=O)c2c(OC)c3c(c4c2OC(C)(CCC=C(C)C)C=C4)OC(C)(CCC=C(C)C)C=C3)cc1 (stereo not drawn) | > 128 µg/mL | 4 µg/mL | 64 µg/mL | 64 µg/mL | 32 µg/mL | > 128 µg/mL | 64 µg/mL | > 128 µg/mL | > 128 µg/mL | > 128 µg/mL |  |  |
| COc1c2c(c3c(c1C(=O)/C=C/c1ccc(OCCCN4CCOCC4)cc1)OC(C)(CCC=C(C)C)C=C3)OC(C)(CCC=C(C)C)C=C2 (stereo not drawn) | > 128 µg/mL | > 128 µg/mL | > 128 µg/mL | > 128 µg/mL | > 128 µg/mL | > 128 µg/mL | > 128 µg/mL | > 128 µg/mL | > 128 µg/mL | > 128 µg/mL |  |  |
| COc1c2c(c3c(c1C(=O)/C=C/c1ccc(OCCC[N+](C)(C)CCCN)cc1)OC(C)(CCC=C(C)C)C=C3)OC(C)(CCC=C(C)C)C=C2 (stereo not drawn) | 32 µg/mL | 4 µg/mL | 16 µg/mL | 8 µg/mL | > 128 µg/mL | > 128 µg/mL | 8 µg/mL | > 128 µg/mL | > 128 µg/mL | > 128 µg/mL |  |  |
| COc1c2c(c3c(c1C(=O)/C=C/c1ccc(OCCCNCCCN4CCN(C)CC4)cc1)OC(C)(CCC=C(C)C)C=C3)OC(C)(CCC=C(C)C)C=C2 (stereo not drawn) | 8 µg/mL (≈ 10.6 µM) | 4 µg/mL (≈ 5.32 µM) | 4 µg/mL (≈ 5.32 µM) | 4 µg/mL (≈ 5.32 µM) | 8 µg/mL (≈ 10.6 µM) | > 128 µg/mL | 4 µg/mL (≈ 5.32 µM) | > 128 µg/mL | > 128 µg/mL | > 128 µg/mL |  |  |
| CN[C@H](CC(C)C)C(=O)N[C@H]1C(=O)N[C@@H](CC(N)=O)C(=O)N[C@H]2C(=O)N[C@H]3C(=O)N[C@H](C(=O)N[C@H](C(=O)O)c4cc(O)cc(O)c4-c4cc3ccc4O)[C@H](O)c3ccc(c(Cl)c3)Oc3cc2cc(c3O[C@@H]2O[C@H](CO)[C@@H](O)[C@H](O)[C@H]2O[C@H]2C[C@](C)(N)[C@H](O)[C@H](C)O2)Oc2ccc(cc2Cl)[C@H]1O [VANCOMYCIN] |  |  |  | 0.5 µg/mL (≈ 0.345 µM) | 2 µg/mL (≈ 1.38 µM) | > 128 µg/mL |  | 16 µg/mL (≈ 11 µM) | 128 µg/mL (≈ 88.3 µM) | 128 µg/mL (≈ 88.3 µM) |  |  |
| CC(=O)c1c(OCC(=O)NCCCN2CCCC2)c2c(c3c1OC(C)(CCC=C(C)C)C=C3)OC(C)(CCC=C(C)C)C=C2 (stereo not drawn) | 4 µg/mL (≈ 6.61 µM) | 8 µg/mL (≈ 13.2 µM) | 4 µg/mL (≈ 6.61 µM) | 16 µg/mL (≈ 26.5 µM) | 8 µg/mL (≈ 13.2 µM) | > 128 µg/mL | 4 µg/mL (≈ 6.61 µM) | 128 µg/mL (≈ 212 µM) | > 128 µg/mL | > 128 µg/mL |  |  |
| CCN(CC)CCCNC(=O)COc1c2c(c3c(c1C(C)=O)OC(C)(CCC=C(C)C)C=C3)OC(C)(CCC=C(C)C)C=C2 (stereo not drawn) | 4 µg/mL (≈ 6.59 µM) | 2 µg/mL (≈ 3.3 µM) | 4 µg/mL (≈ 6.59 µM) | 2 µg/mL (≈ 3.3 µM) | 2 µg/mL (≈ 3.3 µM) | 128 µg/mL (≈ 211 µM) | 4 µg/mL (≈ 6.59 µM) | > 128 µg/mL | > 128 µg/mL | > 128 µg/mL |  |  |
| CC[C@H](C)[C@H](NC(=O)CN)C(=O)NCC(=O)N[C@@H](C)C(=O)N[C@H](C(=O)N[C@@H](CC(C)C)C(=O)N[C@@H](CCCCN)C(=O)N[C@H](C(=O)N[C@@H](CC(C)C)C(=O)N[C@H](C(=O)N[C@H](C(=O)NCC(=O)N[C@@H](CC(C)C)C(=O)N1CCC[C@H]1C(=O)N[C@@H](C)C(=O)N[C@@H](CC(C)C)C(=O)N[C@H](C(=O)N[C@@H](CO)C(=O)N[C@@H](Cc1c[nH]c2ccccc12)C(=O)N[C@H](C(=O)N[C@@H](CCCCN)C(=O)N[C@@H](CCCNC(=N)N)C(=O)N[C@@H](CCCCN)C(=O)N[C@@H](CCCNC(=N)N)C(=O)N[C@@H](CCC(N)=O)C(=O)N[C@@H](CCC(N)=O)C(N)=O)[C@@H](C)CC)[C@@H](C)CC)[C@@H](C)O)[C@@H](C)O)C(C)C)C(C)C |  |  |  |  |  |  |  |  |  |  | Active | Active |
